# Assay results: ChEMBL document CHEMBL1201862, “PubChem BioAssay data set” (2004)
# The source made the active and inactive calls.
# Legend:
# [1] = molecular target: Perilipin-1/ABHD5 (Homo sapiens, UniProt O60240+Q8WTS1); assay: Luminescence-based biochemical high throughput dose response assay for inhibitors of the interaction of the lipase co-activator protein, abhydrolase domain containing 5 (ABHD5) with perilipin-1 (PLIN1) (2K validation set). [Related pubchem assays (depositor defined):AID493027, AID493057]
# [2] = molecular target: 1-acylglycerol-3-phosphate O-acyltransferase ABHD5/Perilipin-5 (Homo sapiens, UniProt Q00G26+Q8WTS1); assay: Luminescence-based biochemical high throughput dose response assay for inhibitors of the interaction of the lipase co-activator protein, abhydrolase domain containing 5 (ABHD5) with perilipin-5 (MLDP; PLIN5) (2K validation set). [Related pubchem assays (depositor defined):AID493035, AID493241]
# [3] = molecular target: T1, Caspase-3 (Homo sapiens, UniProt P42574); assay: activation of caspase-3 zymogen – biochemical, absorbance, dose response (AID 489014)
# T1 sequence (P42574 whole entry): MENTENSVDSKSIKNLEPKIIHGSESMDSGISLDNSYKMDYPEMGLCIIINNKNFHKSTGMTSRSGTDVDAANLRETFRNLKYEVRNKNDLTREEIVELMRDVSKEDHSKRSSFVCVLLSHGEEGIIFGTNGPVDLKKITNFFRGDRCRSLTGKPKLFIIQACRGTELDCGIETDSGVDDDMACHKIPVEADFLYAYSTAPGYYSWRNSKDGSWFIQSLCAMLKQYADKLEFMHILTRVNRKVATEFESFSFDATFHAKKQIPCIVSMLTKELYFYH
# [4] = molecular target: T2, Endoribonuclease toxin MazF (Escherichia coli K-12, UniProt P0AE70); assay: activation of MazEF endoribonuclease cleavage – biochemical, fluorescence, single-stranded RNA substrate, uHTS hits, dose response (AID 588481); format: functional
# T2 sequence (P0AE70 whole entry): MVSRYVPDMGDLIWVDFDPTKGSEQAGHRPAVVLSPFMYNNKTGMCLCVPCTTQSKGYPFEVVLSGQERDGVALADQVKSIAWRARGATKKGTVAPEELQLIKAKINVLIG
# [5] = molecular target: T3, Caspase-7 (Homo sapiens, UniProt P55210); assay: activation of caspase-7 zymogen – biochemical, absorbance, counter-screen for procaspase-3 activator project, dose response (AID 489013)
# T3 sequence (P55210 whole entry): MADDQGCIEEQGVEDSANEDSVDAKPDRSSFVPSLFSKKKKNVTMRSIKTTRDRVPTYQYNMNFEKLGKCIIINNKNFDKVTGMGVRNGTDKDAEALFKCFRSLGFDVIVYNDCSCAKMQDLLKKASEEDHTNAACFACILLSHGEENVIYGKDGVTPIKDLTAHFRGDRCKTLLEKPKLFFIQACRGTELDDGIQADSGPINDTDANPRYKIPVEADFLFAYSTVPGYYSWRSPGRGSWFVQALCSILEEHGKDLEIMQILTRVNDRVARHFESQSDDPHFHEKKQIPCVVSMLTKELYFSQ
# [6] = molecular target: T2, Endoribonuclease toxin MazF; assay: substrate-only fluorescence increase artefacts – biochemical, single-stranded RNase substrate, counter-screen for MazEF activator project, dose response (AID 588502); format: functional
# [7] = molecular target: Beta-galactosidase (Escherichia coli, UniProt Q8VNN2); assay: detection-enzyme interference by beta-gal modulators – biochemical, E. coli enzyme, set 3, artefact control for CCR6 antagonist project, dose response (AID 504712); format: functional
# [8] = tested on: HEK293; assay: cells; format: functional, cell-based; details: Homo sapiens
# [9] = cells; format: functional
# [10] = HepG2 cell cytotoxicity, dose response, cytotoxicity control for non-replicating M. tuberculosis project (AID 489018); format: functional; details: Mycobacterium tuberculosis
# [11] = tested on: HEK293; assay: cells; format: functional, cell-based; details: Homo sapiens; remark: listed apart in the source
# [12] = tested on: HEK293; assay: cells; format: functional, cell-based; details: Homo sapiens; remark: listed apart in the source
# [13] = tested on: HEK293; assay: SAR analysis of compounds that are cytotoxic to HEK293 - Set 2. [Related pubchem assays (depositor defined):AID1575, AID1578, AID1849, AID2001, AID2333, AID2334, AID2335, AID2337, AID2800]; format: functional, cell-based; details: Homo sapiens
# [14] = molecular target: T4, Nucleotide-binding oligomerization domain-containing protein 1 (Homo sapiens, UniProt Q9Y239); assay: blockers of NOD1 pathway activity – revised, SAR follow-up (AID 2333); format: functional
# T4 sequence (Q9Y239 whole entry): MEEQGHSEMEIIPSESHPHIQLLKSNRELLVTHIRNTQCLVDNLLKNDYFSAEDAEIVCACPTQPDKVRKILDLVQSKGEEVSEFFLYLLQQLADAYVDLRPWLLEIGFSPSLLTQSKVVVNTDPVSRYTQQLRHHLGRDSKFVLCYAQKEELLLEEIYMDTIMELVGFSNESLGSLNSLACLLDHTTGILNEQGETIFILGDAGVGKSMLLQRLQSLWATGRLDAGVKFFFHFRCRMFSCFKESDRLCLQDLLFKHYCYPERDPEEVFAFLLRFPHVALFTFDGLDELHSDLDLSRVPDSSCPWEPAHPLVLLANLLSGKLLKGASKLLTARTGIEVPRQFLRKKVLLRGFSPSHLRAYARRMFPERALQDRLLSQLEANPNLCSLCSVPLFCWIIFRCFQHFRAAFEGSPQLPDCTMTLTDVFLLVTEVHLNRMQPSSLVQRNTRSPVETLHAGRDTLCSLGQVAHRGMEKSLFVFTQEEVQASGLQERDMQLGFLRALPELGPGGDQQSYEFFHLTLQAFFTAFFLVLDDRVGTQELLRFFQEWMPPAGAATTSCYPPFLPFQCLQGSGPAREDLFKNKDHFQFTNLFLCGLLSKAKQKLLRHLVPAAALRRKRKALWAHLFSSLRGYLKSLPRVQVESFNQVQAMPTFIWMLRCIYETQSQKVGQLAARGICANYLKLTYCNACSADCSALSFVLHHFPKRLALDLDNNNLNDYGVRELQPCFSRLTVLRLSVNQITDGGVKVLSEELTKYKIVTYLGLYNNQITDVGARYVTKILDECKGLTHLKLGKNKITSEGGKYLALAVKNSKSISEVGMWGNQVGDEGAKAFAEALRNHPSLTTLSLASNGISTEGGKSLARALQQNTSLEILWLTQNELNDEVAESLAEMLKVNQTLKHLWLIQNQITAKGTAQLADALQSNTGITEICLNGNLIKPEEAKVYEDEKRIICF
# [15] = molecular target: T5, Nucleotide-binding oligomerization domain-containing protein 2 (Homo sapiens, UniProt Q9HC29); assay: inhibition of NOD2 signaling – set 2, SAR follow-up (AID 2475); format: functional
# [16] = molecular target: Tumor necrosis factor (Homo sapiens, UniProt P01375); assay: analog potency on TNFa NF-kB signaling – cell-based, revised, SAR follow-up (AID 2337); format: functional
# [17] = molecular target: T5, Nucleotide-binding oligomerization domain-containing protein 2; assay: inhibition of NOD2-driven NF-kB reporter – cell-based, luminescence, uHTS, HEK293 (AID 1566); format: functional
# [18] = molecular target: T5, Nucleotide-binding oligomerization domain-containing protein 2; assay: PubChem AID 2334; format: functional
# [19] = tested on: HEK293; assay: cells; details: Homo sapiens
# [20] = tested on: HEK293; assay: NOD2 signaling inhibitors in MDP-stimulated cells, cell-based, uHTS, luminescence (AID 2001); format: functional; details: Homo sapiens
# [21] = tested on: Streptococcus sp. 'group A'; assay: Streptococcus pyogenes SK(-)GAS viability under kanamycin – luminescence, BacTiterGlo, confirmation, counter-screen for streptokinase expression inhibitor project, dose response (AID 1900); format: functional, organism-based
# [22] = Vero E6 cell cytotoxicity, dose response, cytotoxicity control for non-replicating M. tuberculosis project, secondary assay (AID 492998); format: functional, VeroE6; details: Vero C1008
# [23] = molecular target: T6, Streptokinase A (Streptococcus pyogenes serotype M1, UniProt P10520); assay: viability-normalized secreted streptokinase activity reduction – plasminogen activation absorbance, OD405, dose response (AID 1914); format: functional, Streptococcus pyogenes M1 GAS;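 further: secreted streptokinase activity via plasminogen activation per viability signal from cell pellet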
# T6 sequence (P10520 whole entry): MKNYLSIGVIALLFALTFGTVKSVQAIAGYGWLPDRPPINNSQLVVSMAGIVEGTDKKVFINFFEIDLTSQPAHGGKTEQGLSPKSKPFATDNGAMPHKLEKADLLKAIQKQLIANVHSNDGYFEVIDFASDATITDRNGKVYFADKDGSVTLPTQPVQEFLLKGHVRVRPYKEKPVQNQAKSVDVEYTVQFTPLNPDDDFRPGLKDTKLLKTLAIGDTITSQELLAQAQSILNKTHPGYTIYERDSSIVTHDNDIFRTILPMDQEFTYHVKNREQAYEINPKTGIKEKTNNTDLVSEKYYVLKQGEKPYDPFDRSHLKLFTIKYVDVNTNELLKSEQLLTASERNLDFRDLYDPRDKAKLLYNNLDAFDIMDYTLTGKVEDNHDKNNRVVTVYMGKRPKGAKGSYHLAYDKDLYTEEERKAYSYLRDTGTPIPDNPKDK
# [24] = tested on: HEK293; assay: inhibition of NOD1-driven NF-kB reporter – cell-based, luminescence, uHTS, primary screen (AID 1578); format: functional; details: Homo sapiens
# [25] = tested on: Streptococcus; assay: GAS UMAA2166 growth inhibition – luminescence, BacTiterGlo, counter-screen for streptokinase expression inhibitor project, dose response (AID 1915); format: functional, organism-based;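 further: potency for reduction of bacterial viability or growth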
# [26] = THP-1 cell cytotoxicity, dose response, cytotoxicity control for non-replicating M. tuberculosis project (AID 489025); format: functional
# [27] = molecular target: T7, Coagulation factor XII (Homo sapiens, UniProt P00748); assay: Factor XIIa Dose Response Confirmation from Single Well HTS. [Related pubchem assays (depositor defined):AID701]; format: functional
# T7 sequence (P00748 whole entry): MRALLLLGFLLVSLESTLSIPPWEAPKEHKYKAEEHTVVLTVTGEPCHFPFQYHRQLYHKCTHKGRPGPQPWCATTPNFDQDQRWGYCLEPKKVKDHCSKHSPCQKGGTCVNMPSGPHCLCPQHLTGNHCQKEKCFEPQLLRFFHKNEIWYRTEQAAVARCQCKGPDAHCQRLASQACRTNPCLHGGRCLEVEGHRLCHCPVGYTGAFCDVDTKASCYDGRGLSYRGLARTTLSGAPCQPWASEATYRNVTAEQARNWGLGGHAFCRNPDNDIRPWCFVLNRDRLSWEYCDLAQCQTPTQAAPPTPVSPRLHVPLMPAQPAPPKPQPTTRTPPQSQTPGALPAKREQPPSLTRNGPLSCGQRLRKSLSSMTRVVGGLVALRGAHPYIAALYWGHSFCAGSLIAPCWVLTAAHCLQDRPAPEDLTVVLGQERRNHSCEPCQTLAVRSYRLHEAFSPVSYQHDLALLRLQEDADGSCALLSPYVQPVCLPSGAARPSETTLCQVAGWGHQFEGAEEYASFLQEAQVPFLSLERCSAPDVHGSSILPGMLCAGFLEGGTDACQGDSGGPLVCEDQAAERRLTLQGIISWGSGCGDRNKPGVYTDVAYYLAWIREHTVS
# [28] = molecular target: T8, G-protein coupled receptor 55 (Homo sapiens, UniProt Q9Y2T6); assay: inhibition of LPI-stimulated GPR55 beta-arrestin translocation – imaging, U2OS, beta-arrestin-GFP, LPI agonist, primary screen (AID 2013); format: functional;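 further: antagonist potency measured as reduced agonist-driven arrestin aggregation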
# [29] = tested on: T-cell; assay: loss of vesicle association with mouse CD8+ T cells – mouse 2C CD8+ T cells, flow cytometry, dose response (AID 485284); format: functional
# [30] = molecular target: T8, G-protein coupled receptor 55; assay: SAR Analysis of Selective Antagonists of GPR55 using an Image-Based Assay - Set 3. [Related pubchem assays (depositor defined):AID2058, AID2079]; format: functional
# [31] = molecular target: T9, G-protein coupled receptor 35 (Homo sapiens, UniProt Q9HC97); assay: inhibition of zaprinast-stimulated GPR35 beta-arrestin translocation – imaging, U2OS, beta-arrestin-GFP, zaprinast agonist, primary screen (AID 2058); format: functional;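 further: antagonist potency meaning inhibition of agonist-induced arrestin redistribution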
# [32] = molecular target: T9, G-protein coupled receptor 35; assay: SAR Analysis for the identification of Selective Antagonists of ERK1/2 Activity in GPR35-Overexpressing U2OS Cells - Set 2. [Related pubchem assays (depositor defined):AID2058, AID2079]; format: functional, cell-based
# [33] = molecular target: T9, G-protein coupled receptor 35; assay: SAR analysis of Antagonists of the GPR35 Receptor using an Image-Based Assay - Set 5. [Related pubchem assays (depositor defined):AID2058, AID2079]; format: functional
# T9 sequence (Q9HC97 whole entry): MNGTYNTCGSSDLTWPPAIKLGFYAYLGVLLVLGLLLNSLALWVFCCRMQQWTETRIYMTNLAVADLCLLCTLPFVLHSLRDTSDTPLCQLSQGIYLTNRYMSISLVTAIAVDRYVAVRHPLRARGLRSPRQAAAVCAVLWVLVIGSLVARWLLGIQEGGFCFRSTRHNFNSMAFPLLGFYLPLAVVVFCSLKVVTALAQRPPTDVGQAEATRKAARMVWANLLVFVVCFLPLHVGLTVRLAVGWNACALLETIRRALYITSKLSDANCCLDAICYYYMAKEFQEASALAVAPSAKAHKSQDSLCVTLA
# T5 sequence (Q9HC29 whole entry, the tested form may be a part): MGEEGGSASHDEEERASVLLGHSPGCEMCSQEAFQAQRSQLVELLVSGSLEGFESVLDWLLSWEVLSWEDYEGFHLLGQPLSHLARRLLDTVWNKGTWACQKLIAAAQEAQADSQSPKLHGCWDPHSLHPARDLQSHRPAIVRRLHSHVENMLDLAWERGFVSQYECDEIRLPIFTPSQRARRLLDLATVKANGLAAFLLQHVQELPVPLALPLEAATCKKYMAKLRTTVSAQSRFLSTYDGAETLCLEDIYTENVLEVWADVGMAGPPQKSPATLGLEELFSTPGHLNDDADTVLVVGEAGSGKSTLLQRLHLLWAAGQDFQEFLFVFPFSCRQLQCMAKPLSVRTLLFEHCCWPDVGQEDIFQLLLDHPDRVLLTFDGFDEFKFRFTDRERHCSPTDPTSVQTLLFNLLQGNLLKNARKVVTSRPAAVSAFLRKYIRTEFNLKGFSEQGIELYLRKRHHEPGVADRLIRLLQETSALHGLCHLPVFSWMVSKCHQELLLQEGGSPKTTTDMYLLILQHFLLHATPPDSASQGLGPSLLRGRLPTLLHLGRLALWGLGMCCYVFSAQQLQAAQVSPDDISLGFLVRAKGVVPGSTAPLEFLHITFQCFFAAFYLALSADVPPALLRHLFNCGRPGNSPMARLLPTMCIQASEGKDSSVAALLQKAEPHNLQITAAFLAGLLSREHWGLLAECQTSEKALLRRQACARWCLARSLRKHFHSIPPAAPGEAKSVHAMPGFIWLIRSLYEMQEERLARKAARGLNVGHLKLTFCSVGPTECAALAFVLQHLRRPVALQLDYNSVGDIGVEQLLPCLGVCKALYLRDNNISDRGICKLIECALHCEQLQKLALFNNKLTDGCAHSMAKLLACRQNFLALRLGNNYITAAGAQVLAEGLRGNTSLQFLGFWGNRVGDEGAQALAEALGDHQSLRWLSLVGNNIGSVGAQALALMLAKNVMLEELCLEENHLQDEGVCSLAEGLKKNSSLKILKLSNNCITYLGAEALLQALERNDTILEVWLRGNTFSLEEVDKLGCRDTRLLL
# Tumor necrosis factor, sequence (P01375 whole entry, the tested form may be a part): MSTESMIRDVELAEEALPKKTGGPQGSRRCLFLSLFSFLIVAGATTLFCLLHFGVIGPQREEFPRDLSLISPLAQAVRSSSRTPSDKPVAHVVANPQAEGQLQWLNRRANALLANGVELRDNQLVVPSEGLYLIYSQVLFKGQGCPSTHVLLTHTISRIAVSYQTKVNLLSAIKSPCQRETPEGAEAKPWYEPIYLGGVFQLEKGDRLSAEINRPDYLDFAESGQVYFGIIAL
# T8 sequence (Q9Y2T6 whole entry): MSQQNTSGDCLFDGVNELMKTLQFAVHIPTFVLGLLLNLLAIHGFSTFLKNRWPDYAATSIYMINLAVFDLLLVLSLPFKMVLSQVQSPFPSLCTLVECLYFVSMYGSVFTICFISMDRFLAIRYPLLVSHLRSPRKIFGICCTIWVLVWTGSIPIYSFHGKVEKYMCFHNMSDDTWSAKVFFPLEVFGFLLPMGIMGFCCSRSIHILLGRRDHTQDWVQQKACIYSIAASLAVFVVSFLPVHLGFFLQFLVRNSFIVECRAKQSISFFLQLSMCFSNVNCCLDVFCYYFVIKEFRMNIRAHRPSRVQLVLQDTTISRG
# Beta-galactosidase, sequence (Q8VNN2 whole entry): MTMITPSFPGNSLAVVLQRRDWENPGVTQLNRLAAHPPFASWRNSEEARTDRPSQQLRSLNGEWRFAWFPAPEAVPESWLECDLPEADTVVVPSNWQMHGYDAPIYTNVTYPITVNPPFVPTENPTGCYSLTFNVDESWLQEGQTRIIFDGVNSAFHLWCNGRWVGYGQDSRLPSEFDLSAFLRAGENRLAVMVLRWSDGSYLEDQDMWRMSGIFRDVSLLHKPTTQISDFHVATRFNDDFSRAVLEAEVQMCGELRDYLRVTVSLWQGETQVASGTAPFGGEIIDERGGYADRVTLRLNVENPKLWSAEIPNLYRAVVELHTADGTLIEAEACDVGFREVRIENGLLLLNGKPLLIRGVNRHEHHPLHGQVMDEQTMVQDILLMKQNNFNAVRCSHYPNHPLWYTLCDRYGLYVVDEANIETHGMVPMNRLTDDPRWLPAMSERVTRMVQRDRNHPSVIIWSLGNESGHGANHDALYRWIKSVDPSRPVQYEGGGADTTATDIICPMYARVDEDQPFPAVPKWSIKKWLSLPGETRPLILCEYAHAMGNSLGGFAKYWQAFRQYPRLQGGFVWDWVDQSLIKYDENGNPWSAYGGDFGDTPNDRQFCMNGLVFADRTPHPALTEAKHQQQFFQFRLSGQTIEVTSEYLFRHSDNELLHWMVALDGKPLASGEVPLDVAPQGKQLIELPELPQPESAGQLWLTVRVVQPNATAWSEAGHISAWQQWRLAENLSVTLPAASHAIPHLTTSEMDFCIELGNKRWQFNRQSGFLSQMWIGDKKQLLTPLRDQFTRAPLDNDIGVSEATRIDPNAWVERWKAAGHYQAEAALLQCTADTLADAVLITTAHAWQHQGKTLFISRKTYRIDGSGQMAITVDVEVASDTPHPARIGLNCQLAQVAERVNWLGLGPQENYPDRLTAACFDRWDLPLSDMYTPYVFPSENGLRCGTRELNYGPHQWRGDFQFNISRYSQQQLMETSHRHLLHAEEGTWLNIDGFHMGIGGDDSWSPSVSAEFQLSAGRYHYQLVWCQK
# Perilipin-1/ABHD5, sequence (Q8WTS1 whole entry, the tested form may be a part): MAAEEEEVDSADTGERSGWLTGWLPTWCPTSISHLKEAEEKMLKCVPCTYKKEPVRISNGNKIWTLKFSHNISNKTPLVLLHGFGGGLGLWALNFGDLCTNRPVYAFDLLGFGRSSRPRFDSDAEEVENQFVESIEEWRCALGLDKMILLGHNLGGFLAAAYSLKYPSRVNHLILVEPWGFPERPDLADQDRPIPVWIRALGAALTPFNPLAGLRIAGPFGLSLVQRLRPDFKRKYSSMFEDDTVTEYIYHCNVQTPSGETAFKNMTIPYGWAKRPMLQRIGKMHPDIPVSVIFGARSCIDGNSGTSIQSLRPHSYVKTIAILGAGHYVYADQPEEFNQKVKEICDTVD
# Perilipin-1/ABHD5, sequence (O60240 whole entry, the tested form may be a part): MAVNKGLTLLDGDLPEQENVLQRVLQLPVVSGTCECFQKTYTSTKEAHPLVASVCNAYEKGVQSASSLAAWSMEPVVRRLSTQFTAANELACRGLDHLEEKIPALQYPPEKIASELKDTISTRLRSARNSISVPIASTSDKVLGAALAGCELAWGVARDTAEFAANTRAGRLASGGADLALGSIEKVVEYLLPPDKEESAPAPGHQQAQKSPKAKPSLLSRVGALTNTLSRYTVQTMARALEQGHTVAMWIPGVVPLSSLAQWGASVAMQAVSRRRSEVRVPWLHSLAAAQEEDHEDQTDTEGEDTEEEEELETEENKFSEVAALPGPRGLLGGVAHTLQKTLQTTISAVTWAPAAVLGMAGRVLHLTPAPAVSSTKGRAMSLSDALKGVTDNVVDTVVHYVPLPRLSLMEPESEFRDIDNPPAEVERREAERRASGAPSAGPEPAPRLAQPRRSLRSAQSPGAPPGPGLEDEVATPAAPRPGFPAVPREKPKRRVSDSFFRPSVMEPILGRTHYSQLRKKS
# 1-acylglycerol-3-phosphate O-acyltransferase ABHD5/Perilipin-5, sequence (Q00G26 whole entry, the tested form may be a part): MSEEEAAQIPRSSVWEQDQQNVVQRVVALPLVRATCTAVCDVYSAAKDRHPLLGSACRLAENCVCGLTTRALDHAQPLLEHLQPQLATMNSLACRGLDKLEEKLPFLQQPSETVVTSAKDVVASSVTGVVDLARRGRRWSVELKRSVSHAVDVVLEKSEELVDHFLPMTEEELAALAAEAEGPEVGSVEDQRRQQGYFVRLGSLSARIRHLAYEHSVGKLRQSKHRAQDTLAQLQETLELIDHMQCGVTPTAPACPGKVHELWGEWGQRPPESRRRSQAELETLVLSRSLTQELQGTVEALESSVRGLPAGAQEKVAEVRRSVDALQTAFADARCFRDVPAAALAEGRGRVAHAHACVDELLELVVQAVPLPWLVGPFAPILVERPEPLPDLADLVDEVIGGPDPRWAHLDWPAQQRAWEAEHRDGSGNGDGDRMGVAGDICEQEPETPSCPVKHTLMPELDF
# 1-acylglycerol-3-phosphate O-acyltransferase ABHD5/Perilipin-5, sequence (Q8WTS1 whole entry, the tested form may be a part): as the sequence (Q8WTS1 whole entry, the tested form may be a part) above
structure (smiles),measurement,setting,value
O=C(/C=C/c1ccc2c(c1)OCO2)c1ccccn1,IC50,[1],6.85 µM (active)
same,IC50,[2],6.96 µM (active)
COc1ccccc1Nc1nc2c(C)cccc2cc1C#N,EC50,[3],3.54 µM (active)
same,EC50,[4],> 99 µM (inactive)
same,EC50,[5],9.49 µM (active)
same,EC50,[6],7.39 µM (active)
O=C(NC(=S)N1CCN(c2ccc(C(F)(F)F)cc2[N+](=O)[O-])CC1)c1cccs1,IC50,[7],> 66.6 µM (inactive)
CCC(=O)Nc1nc2ccccc2n1Cc1ccccc1Cl,IC50,[8],> 20 µM (inactive)
same,IC50,[9],210 nM (active)
same,CC50,[10],> 20 µM (active)
same,IC50,[11],> 20 µM (inactive)
same,IC50,[12],> 20 µM (inactive)
same,IC50,[13],> 20 µM (inactive)
same,IC50,[14],> 20 µM (inactive)
same,IC50,[15],5.24 µM (active)
same,IC50,[16],> 20 µM (inactive)
same,EC50,[17],> 20 µM (inactive)
same,IC50,[18],> 20 µM (inactive)
same,IC50,[19],> 20 µM (inactive)
same,IC50,[20],3.8 µM (active)
same,EC50,[21],6.44 µM (active)
same,CC50,[22],10.9 µM (active)
same,EC50,[23],> 150 µM (not active)
same,EC50,[24],> 20 µM (inactive)
same,EC50,[25],105 µM (active)
same,CC50,[26],29.7 µM (active)
Cc1cc(NC(=O)C(C)C)ncc1NC(=O)Cc1ccccc1,IC50,[27],> 50 µM (inactive)
CCSc1nnc2nc3c(c(O)n12)C1(CCCCC1)Cc1ccccc1-3,IC50,[28],8.6 µM (active)
COc1ccccc1CNC(=O)COc1ccc(C)cc1,EC50,[29],22.1 µM (active)
CNC(=S)N/N=C/c1c(C(=O)OC)cnn1-c1ccc(F)cc1F,IC50,[30],> 32 µM (inactive)
same,IC50,[31],1.11 µM (active)
same,IC50,[32],2.29 µM (active)
same,IC50,[33],2.49 µM (active)
